Test results from ChEMBL document CHEMBL1201862, “PubChem BioAssay data set” (2004).
The source made the active and inactive calls.

How the values were obtained:
[1] = molecular target: T1, Cysteine protease ATG4B (Homo sapiens, UniProt Q9Y4P1); type: functional;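 also: Fluorescence-based dose-response confirmation assay measuring inhibition of ATG4B activity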
T1 sequence (Q9Y4P1 whole entry): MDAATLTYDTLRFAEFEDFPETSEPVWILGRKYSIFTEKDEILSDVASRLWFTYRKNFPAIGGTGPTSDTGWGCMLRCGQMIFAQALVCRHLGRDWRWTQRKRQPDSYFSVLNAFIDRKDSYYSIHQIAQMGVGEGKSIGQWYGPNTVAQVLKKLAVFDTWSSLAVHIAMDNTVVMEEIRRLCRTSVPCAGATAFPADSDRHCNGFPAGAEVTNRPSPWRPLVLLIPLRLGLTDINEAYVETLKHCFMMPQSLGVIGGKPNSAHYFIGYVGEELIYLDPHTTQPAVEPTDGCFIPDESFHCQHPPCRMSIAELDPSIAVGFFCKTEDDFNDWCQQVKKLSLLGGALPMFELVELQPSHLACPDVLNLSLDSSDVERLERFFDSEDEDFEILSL

[2] = molecular target: Phospholipase A2 (Homo sapiens, UniProt P04054); type: functional;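 also: confirmatory dose-response counterscreen on phospholipase A2, testing hits that came from an ultra-high-throughput screen for ATG4B inhibitors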
Phospholipase A2, sequence (P04054 whole entry): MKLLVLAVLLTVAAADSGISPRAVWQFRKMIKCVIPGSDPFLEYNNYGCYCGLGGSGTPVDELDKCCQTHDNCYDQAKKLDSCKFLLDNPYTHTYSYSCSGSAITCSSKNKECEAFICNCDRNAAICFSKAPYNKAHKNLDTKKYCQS

[3] = molecular target: T2, Apoptotic protease-activating factor 1 (Homo sapiens, UniProt O14727); type: functional
T2 sequence (O14727 whole entry): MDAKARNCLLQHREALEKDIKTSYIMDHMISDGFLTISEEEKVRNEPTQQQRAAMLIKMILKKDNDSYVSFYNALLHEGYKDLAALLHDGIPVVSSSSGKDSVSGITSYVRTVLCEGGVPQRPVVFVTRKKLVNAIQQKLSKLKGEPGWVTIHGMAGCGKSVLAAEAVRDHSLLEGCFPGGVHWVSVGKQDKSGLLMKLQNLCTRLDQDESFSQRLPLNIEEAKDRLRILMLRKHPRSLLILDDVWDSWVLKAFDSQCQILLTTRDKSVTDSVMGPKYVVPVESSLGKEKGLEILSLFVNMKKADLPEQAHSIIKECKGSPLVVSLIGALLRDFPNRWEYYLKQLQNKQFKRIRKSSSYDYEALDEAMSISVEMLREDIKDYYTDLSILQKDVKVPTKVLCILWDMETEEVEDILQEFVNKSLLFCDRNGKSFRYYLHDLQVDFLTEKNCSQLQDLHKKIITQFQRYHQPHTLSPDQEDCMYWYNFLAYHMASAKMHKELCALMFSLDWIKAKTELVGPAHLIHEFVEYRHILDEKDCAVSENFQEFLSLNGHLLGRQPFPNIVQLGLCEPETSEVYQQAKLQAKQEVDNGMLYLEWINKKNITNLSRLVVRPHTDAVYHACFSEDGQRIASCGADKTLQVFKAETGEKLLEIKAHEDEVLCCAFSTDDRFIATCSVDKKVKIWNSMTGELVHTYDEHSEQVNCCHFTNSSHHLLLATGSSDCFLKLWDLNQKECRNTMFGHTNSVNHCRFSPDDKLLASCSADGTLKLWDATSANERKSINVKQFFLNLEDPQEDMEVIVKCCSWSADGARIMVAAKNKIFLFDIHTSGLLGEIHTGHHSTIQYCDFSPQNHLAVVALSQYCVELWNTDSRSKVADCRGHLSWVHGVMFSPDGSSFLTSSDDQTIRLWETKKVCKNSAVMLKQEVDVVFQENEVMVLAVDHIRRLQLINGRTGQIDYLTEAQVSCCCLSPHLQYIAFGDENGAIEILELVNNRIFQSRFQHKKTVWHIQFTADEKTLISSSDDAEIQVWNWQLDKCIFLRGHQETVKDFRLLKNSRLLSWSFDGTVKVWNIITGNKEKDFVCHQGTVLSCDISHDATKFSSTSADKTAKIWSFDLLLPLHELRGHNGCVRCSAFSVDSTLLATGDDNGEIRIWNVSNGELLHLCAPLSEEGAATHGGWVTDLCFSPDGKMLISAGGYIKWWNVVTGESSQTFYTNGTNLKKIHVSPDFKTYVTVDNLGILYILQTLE

[4] = molecular target: Dual specificity tyrosine-phosphorylation-regulated kinase 1A (Rattus norvegicus, UniProt Q63470); type: biochemical, Homo sapiens
[5] = molecular target: T3, Tyrosyl-DNA phosphodiesterase 2 (Homo sapiens, UniProt O95551); assay: potency against TDP2 phosphodiesterase activity – biochemical, epi absorbance, IC50, dose response (AID 743297)
T3 sequence (O95551 whole entry): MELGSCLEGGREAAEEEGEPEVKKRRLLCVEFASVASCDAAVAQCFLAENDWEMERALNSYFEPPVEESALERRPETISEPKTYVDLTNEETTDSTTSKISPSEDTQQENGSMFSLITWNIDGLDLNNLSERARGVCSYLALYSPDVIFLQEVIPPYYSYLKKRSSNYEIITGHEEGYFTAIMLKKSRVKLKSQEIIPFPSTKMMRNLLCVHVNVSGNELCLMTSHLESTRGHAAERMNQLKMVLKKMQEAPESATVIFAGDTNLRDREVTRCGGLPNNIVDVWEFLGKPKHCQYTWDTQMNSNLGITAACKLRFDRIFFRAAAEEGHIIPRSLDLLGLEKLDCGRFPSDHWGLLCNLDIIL

[6] = molecular target: T4, RNA-binding protein pos-1 (Caenorhabditis elegans, UniProt G5EF15); assay: disruptors of C. elegans POS-1 RNA interaction – biochemical, fluorescence polarization, dose response (AID 1964);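 also: purified POS-1 fused to maltose binding protein made in E. coli; potency of compounds blocking POS-1 binding to fluorescent RNA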
T4 sequence (G5EF15 whole entry): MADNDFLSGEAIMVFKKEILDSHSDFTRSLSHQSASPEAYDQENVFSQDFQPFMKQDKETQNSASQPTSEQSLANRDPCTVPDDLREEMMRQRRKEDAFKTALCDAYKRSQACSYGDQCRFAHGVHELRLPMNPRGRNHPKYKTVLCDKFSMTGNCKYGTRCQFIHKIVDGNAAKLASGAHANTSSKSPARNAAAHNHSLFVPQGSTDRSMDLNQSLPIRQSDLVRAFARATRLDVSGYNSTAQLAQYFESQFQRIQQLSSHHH

Row | Compound | IC50 [1] | IC50 [2] | IC50 [3] | AC50 [4] | IC50 [5] | EC50 [6]
1 | COC(=O)c1cc(C)nc2c1C(=O)C(=O)C=C2N1CCOCC1 | 4.45 µM (active) | 65.6 µM (inactive) | 1.01 µM (active) | 0.983 µM (active) | 1.33 µM (active) | 
2 | NS(=O)(=O)c1cc(C(=O)NC2CCSc3ccccc32)ccc1Cl (stereo unspecified) | 6.64 µM (active) | 24.1 µM (inactive) |  |  |  | 13.4 µM (inconclusive)
3 | O=C1c2ccccc2C(=O)c2[nH]c(O)nc21 |  |  | 6.79 µM (active) |  |  | 28.9 µM (active)
4 | CCOC(=O)C1=C(C)OC2(O)c3ccccc3C(=O)C12O (stereo unspecified) |  |  | 2.55 µM (active) |  | 4.11 µM (active) | 
5 | N#Cc1c(N2CCCC2)nc(N)c2c(N)nc(N3CCCC3)cc12 | 1.64 µM (active) | 11.7 µM (active) | 0.181 µM (active) | 0.287 µM (active) |  | 
